From ChEMBL document CHEMBL3045169, “In vitro evaluation of the antibacterial and antifungal activity of some new pyrazolyl-quinazolin-4(3H)-one derivatives” (2012)

Assays:
Type in all cases: functional
Aspergillus niger [1] = assay: Antifungal activity against Aspergillus niger ATCC 6275 by agar cup-plate method relative to fluconazole; design: concentration or dose not given beside the values
Aspergillus niger [2] = assay: Antifungal activity against Aspergillus niger ATCC 6275 at 10 ug/ml by agar cup-plate method; settings: read-out: IZ
Aspergillus niger [3] = assay: Antifungal activity against Aspergillus niger ATCC 6275 at 20 ug/ml by agar cup-plate method; settings: read-out: IZ
Candida albicans [4] = assay: Antifungal activity against Candida albicans ATCC 10231 by agar cup-plate method relative to fluconazole; design: concentration or dose not given beside the values
Candida albicans [5] = assay: Antifungal activity against Candida albicans ATCC 10231 at 10 ug/ml by agar cup-plate method; settings: read-out: IZ
Candida albicans [6] = assay: Antifungal activity against Candida albicans ATCC 10231 at 20 ug/ml by agar cup-plate method; settings: read-out: IZ
Pseudomonas aeruginosa [7] = assay: Antibacterial activity against Pseudomonas aeruginosa ATCC 9027 by agar cup-plate method relative to penicillin-G; design: concentration or dose not given beside the values
Pseudomonas aeruginosa [8] = assay: Antibacterial activity against Pseudomonas aeruginosa ATCC 9027 at 50 ug/ml by agar cup-plate method; settings: read-out: IZ
Pseudomonas aeruginosa [9] = assay: Antibacterial activity against Pseudomonas aeruginosa ATCC 9027 at 100 ug/ml by agar cup-plate method; settings: read-out: IZ
Escherichia coli [10] = assay: Antibacterial activity against Escherichia coli ATCC 25922 by agar cup-plate method relative to penicillin-G; design: concentration or dose not given beside the values
Escherichia coli [11] = assay: Antibacterial activity against Escherichia coli ATCC 25922 at 50 ug/ml by agar cup-plate method; settings: read-out: IZ
Escherichia coli [12] = assay: Antibacterial activity against Escherichia coli ATCC 25922 at 100 ug/ml by agar cup-plate method; settings: read-out: IZ
Bacillus subtilis [13] = assay: Antibacterial activity against Bacillus subtilis ATCC 6633 by agar cup plate method relative to penicillin-G; design: concentration or dose not given beside the values
Bacillus subtilis [14] = assay: Antibacterial activity against Bacillus subtilis ATCC 6633 at 50 ug/ml by agar cup plate method; settings: read-out: IZ
Bacillus subtilis [15] = assay: Antibacterial activity against Bacillus subtilis ATCC 6633 at 100 ug/ml by agar cup plate method; settings: read-out: IZ
Staphylococcus aureus [16] = assay: Antibacterial activity against Staphylococcus aureus ATCC 9144 by agar cup-plate method relative to penicillin-G; design: concentration or dose not given beside the values
Staphylococcus aureus [17] = assay: Antibacterial activity against Staphylococcus aureus ATCC 9144 at 50 ug/ml by agar cup-plate method; settings: read-out: IZ
Staphylococcus aureus [18] = assay: Antibacterial activity against Staphylococcus aureus ATCC 9144 at 100 ug/ml by agar cup-plate method; settings: read-out: IZ

| SMILES | Activity (Aspergillus niger [1]) [%] | zone of inhibition at 10 µg/mL (Aspergillus niger [2]) [mm] | zone of inhibition at 20 µg/mL (Aspergillus niger [3]) [mm] | Activity (Candida albicans [4]) [%] | zone of inhibition at 10 µg/mL (Candida albicans [5]) [mm] | zone of inhibition at 20 µg/mL (Candida albicans [6]) [mm] | Activity (Pseudomonas aeruginosa [7]) [%] | zone of inhibition at 50 µg/mL (Pseudomonas aeruginosa [8]) [mm] | zone of inhibition at 100 µg/mL (Pseudomonas aeruginosa [9]) [mm] | Activity (Escherichia coli [10]) [%] | zone of inhibition at 50 µg/mL (Escherichia coli [11]) [mm] | zone of inhibition at 100 µg/mL (Escherichia coli [12]) [mm] | Activity (Bacillus subtilis [13]) [%] | zone of inhibition at 50 µg/mL (Bacillus subtilis [14]) [mm] | zone of inhibition at 100 µg/mL (Bacillus subtilis [15]) [mm] | Activity (Staphylococcus aureus [16]) [%] | zone of inhibition at 50 µg/mL (Staphylococcus aureus [17]) [mm] | zone of inhibition at 100 µg/mL (Staphylococcus aureus [18]) [mm] |
| --- | --- | --- | --- | --- | --- | --- | --- | --- | --- | --- | --- | --- | --- | --- | --- | --- | --- | --- |
| O=c1c2cc(I)ccc2nc(Cc2ccccc2Nc2ccccc2)n1NC1=NNC(c2ccccc2)C1 (stereo not drawn) | 58.12 | 15 | 17 | 68.81 | 15 | 18 | 48.61 | 0 | 7 | 40.81 | 0 | 6 | 81.79 | 18 | 22 | 70.87 | 17 | 21 |
| O=c1c2cc(I)ccc2nc(Cc2ccccc2Nc2ccccc2)n1NC1=NNC(c2ccc(Cl)cc2)C1 (stereo not drawn) | 58.12 | 15 | 17 | 67.26 | 16 | 18 | 48.61 | 0 | 7 | 40.81 | 0 | 6 | 41.49 | 0 | 6 | 44.39 | 0 | 6 |
| O=c1c2cc(I)ccc2nc(Cc2ccccc2Nc2ccccc2)n1NC1=NNC(c2cccc(O)c2)C1 (stereo not drawn) | 45.04 | 0 | 7 | 49.07 | 0 | 7 | 39.56 | 8 | 10 | 34.11 | 7 | 9 | 47.05 | 11 | 13 | 42.34 | 10 | 12 |
| O=c1c2cc(I)ccc2nc(Cc2ccccc2Nc2ccccc2)n1NC1=NNC(c2cccc([N+](=O)[O-])c2)C1 (stereo not drawn) | 51.18 | 11 | 14 | 56.01 | 13 | 15 | 67.47 | 16 | 19 | 62.3 | 15 | 19 | 52.61 | 11 | 14 | 52.83 | 12 | 15 |
| COc1ccc(C2CC(Nn3c(Cc4ccccc4Nc4ccccc4)nc4ccc(I)cc4c3=O)=NN2)cc1 (stereo not drawn) | 45.04 | 0 | 7 | 49.07 | 0 | 7 | 68.97 | 15 | 19 | 57.71 | 15 | 18 | 41.49 | 9 | 11 | 38.15 | 8 | 10 |
| OC(Cn1cncn1)(Cn1cncn1)c1ccc(F)cc1F [FLUCONAZOLE] | – | 22 | 28 | – | 21 | 26 | – | – | – | – | – | – | – | – | – | – | – | – |
| COc1ccccc1C1CC(Nn2c(Cc3ccccc3Nc3ccccc3)nc3ccc(I)cc3c2=O)=NN1 (stereo not drawn) | 41.3 | 0 | 6 | 45.11 | 0 | 6 | 63.19 | 13 | 17 | 52.45 | 13 | 16 | 38.97 | 8 | 10 | 36.21 | 7 | 9 |
| O=c1c2cc(I)ccc2nc(Cc2ccccc2Nc2ccccc2)n1NC1=NNC(c2ccc([N+](=O)[O-])cc2)C1 (stereo not drawn) | 51.52 | 13 | 15 | 59.53 | 14 | 16 | 61.15 | 14 | 17 | 54.75 | 12 | 16 | 58.83 | 13 | 16 | 55.57 | 11 | 15 |
| O=c1c2cc(I)ccc2nc(Cc2ccccc2Nc2ccccc2)n1NC1=NNC(c2ccccc2[N+](=O)[O-])C1 (stereo not drawn) | 58.12 | 15 | 17 | 68.81 | 15 | 18 | 55.43 | 12 | 15 | 47.67 | 11 | 14 | 63.61 | 13 | 17 | 55.29 | 13 | 16 |
| CC1(C)S[C@@H]2[C@H](NC(=O)Cc3ccccc3)C(=O)N2[C@H]1C(=O)O [PENICILLIN G] | – | – | – | – | – | – | – | 23 | 28 | – | 25 | 31 | – | 21 | 27 | – | 25 | 30 |
| O=c1c2cc(I)ccc2nc(Cc2ccccc2Nc2ccccc2)n1NC1=NNC(c2ccccc2Cl)C1 (stereo not drawn) | 66.9 | 16 | 19 | 76.62 | 17 | 20 | 48.61 | 0 | 7 | 44.45 | 0 | 7 | 45.27 | 0 | 7 | 44.39 | 0 | 6 |
| O=c1c2cc(I)ccc2nc(Cc2ccccc2Nc2ccccc2)n1NC1=NNC(c2ccc(O)cc2)C1 (stereo not drawn) | 51.18 | 11 | 14 | 56.01 | 13 | 15 | 37.4 | 7 | 9 | 32.33 | 6 | 8 | 41.49 | 9 | 11 | 38.15 | 8 | 10 |
| O=c1c2cc(I)ccc2nc(Cc2ccccc2Nc2ccccc2)n1NC1=NNC(c2cccc(Cl)c2)C1 (stereo not drawn) | 53.99 | 12 | 15 | 59.53 | 14 | 16 | 44.72 | 0 | 6 | 40.81 | 0 | 6 | 41.49 | 0 | 6 | 44.39 | 0 | 6 |
| CN(C)c1ccc(C2CC(Nn3c(Cc4ccccc4Nc4ccccc4)nc4ccc(I)cc4c3=O)=NN2)cc1 (stereo not drawn) | 60.1 | 14 | 17 | 68.81 | 15 | 18 | 48.61 | 0 | 7 | 40.81 | 0 | 6 | 45.27 | 0 | 7 | 48.23 | 0 | 7 |
